Measurements as given in the supplement of paper PMC10307832.

Experiments:
Assay in all cases: relative viability (nuclei count vs DMSO), 5 days (fraction); higher = more cells survive
Bleomycin + Olaparib = compound: CC1=C(N=C(N=C1N)[C@H](CC(=O)N)NC[C@@H](C(=O)N)N)C(=O)N[C@@H]([C@H](C2=CN=CN2)OC3C(C(C(C(O3)CO)O)O)OC4C(C(C(C(O4)CO)O)OC(=O)N)O)C(=O)N[C@H](C)[C@H]([C@H](C)C(=O)N[C@@H]([C@@H](C)O)C(=O)NCCC5=NC(=CS5)C6=NC(=CS6)C(=O)NCCC[S+](C)C)O [Bleomycin] + O=C(c1cc(Cc2n[nH]c(=O)c3ccccc23)ccc1F)N1CCN(C(=O)C2CC2)CC1 [Olaparib] (partner 8 µM); conditions: main component drawn
Method in brief: (§1)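 Lung cancer cell lines, seeded in 1536-well plates, were treated the following day by pin tool with a single drug or with five library-drug doses (not always all listed) in √10 steps on top of a fixed anchor-drug dose. Cells were fixed and nuclei stained in one step after 5 days, and nuclei were counted. Relative viability is the nuclei count for treated wells divided by that for vehicle wells, reported as medians of duplicate plates.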

Bleomycin + Pemetrexed = compound: CC1=C(N=C(N=C1N)[C@H](CC(=O)N)NC[C@@H](C(=O)N)N)C(=O)N[C@@H]([C@H](C2=CN=CN2)OC3C(C(C(C(O3)CO)O)O)OC4C(C(C(C(O4)CO)O)OC(=O)N)O)C(=O)N[C@H](C)[C@H]([C@H](C)C(=O)N[C@@H]([C@@H](C)O)C(=O)NCCC5=NC(=CS5)C6=NC(=CS6)C(=O)NCCC[S+](C)C)O [Bleomycin] + Nc1nc2[nH]cc(CCc3ccc(C(=O)N[C@@H](CCC(=O)O)C(=O)O)cc3)c2c(=O)[nH]1 [Pemetrexed] (partner 0.2 µM); conditions: main component drawn
Method in brief: as §1

Etoposide + Vorinostat = compound: COc1cc([C@@H]2c3cc4c(cc3[C@@H](O[C@@H]3O[C@@H]5CO[C@@H](C)O[C@H]5[C@H](O)[C@H]3O)[C@H]3COC(=O)[C@H]23)OCO4)cc(OC)c1O [Etoposide] + O=C(CCCCCCC(=O)Nc1ccccc1)NO [Vorinostat] (partner 1 µM)
Method in brief: as §1

Etoposide + Pictilisib = compound: COc1cc([C@@H]2c3cc4c(cc3[C@@H](O[C@@H]3O[C@@H]5CO[C@@H](C)O[C@H]5[C@H](O)[C@H]3O)[C@H]3COC(=O)[C@H]23)OCO4)cc(OC)c1O [Etoposide] + CS(=O)(=O)N1CCN(Cc2cc3nc(-c4cccc5[nH]ncc45)nc(N4CCOCC4)c3s2)CC1 [Pictilisib] (partner 1 µM)
Method in brief: as §1

Row | Cell Line | relative viability (Bleomycin + Olaparib; first compound 0.01 µM) | relative viability (Bleomycin + Olaparib; first compound 0.03162 µM) | relative viability (Bleomycin + Olaparib; first compound 0.1 µM) | relative viability (Bleomycin + Olaparib; first compound 0.3162 µM) | relative viability (Bleomycin + Olaparib; first compound 1 µM) | relative viability (Bleomycin + Pemetrexed; first compound 0.01 µM) | relative viability (Bleomycin + Pemetrexed; first compound 0.03162 µM) | relative viability (Bleomycin + Pemetrexed; first compound 0.1 µM) | relative viability (Bleomycin + Pemetrexed; first compound 0.3162 µM) | relative viability (Bleomycin + Pemetrexed; first compound 1 µM) | relative viability (Etoposide + Vorinostat; first compound 0.01 µM) | relative viability (Etoposide + Vorinostat; first compound 0.03162 µM) | relative viability (Etoposide + Vorinostat; first compound 0.1 µM) | relative viability (Etoposide + Vorinostat; first compound 0.3162 µM) | relative viability (Etoposide + Vorinostat; first compound 1 µM) | relative viability (Etoposide + Pictilisib; first compound 0.03162 µM) | relative viability (Etoposide + Pictilisib; first compound 0.1 µM) | relative viability (Etoposide + Pictilisib; first compound 0.3162 µM) | relative viability (Etoposide + Pictilisib; first compound 1 µM) | relative viability (Etoposide + Pictilisib; first compound 0.01 µM)
1 | LCLC-97TM1 | 0.211 | 0.258 | 0.148 | 0.0871 | 0.0615 | 0.169 | 0.165 | 0.189 | 0.141 | 0.0948 | 0.783 | 0.896 | 0.315 | 0.316 | 0.0855 | 0.172 | 0.115 | 0.116 | 0.109 | –
2 | NCI-H522 | 0.498 | 0.627 | 0.625 | 0.404 | 0.333 | 0.844 | 0.815 | 0.85 | 0.49 | 0.321 | 0.934 | 0.981 | 0.774 | 0.841 | 0.834 | – | – | – | – | –
3 | NCI-H727 | 0.732 | 0.634 | 0.612 | 0.592 | 0.624 | – | – | – | – | – | 1.16 | 1.47 | 0.873 | 1.12 | 0.96 | 0.469 | 0.215 | 0.444 | 0.35 | 0.327
4 | NCI-H1299 | 0.819 | 0.904 | 0.681 | 0.346 | 0.252 | – | – | – | – | – | – | – | – | – | – | 0.672 | 0.641 | 0.644 | 0.332 | 0.777
5 | NCI-H1563 | – | – | – | – | – | 0.618 | 0.915 | 0.691 | 0.54 | 0.575 | – | – | – | – | – | 0.653 | 0.61 | 0.501 | 0.555 | 0.661
6 | NCI-H1648 | 0.757 | 0.571 | 0.443 | 0.267 | 0.357 | 0.669 | 0.614 | 0.508 | 0.483 | 0.469 | – | 0.58 | 0.306 | 0.3 | 0.329 | – | – | – | – | –
7 | NCI-H1703 | 0.55 | 0.508 | 0.289 | 0.309 | 0.166 | – | – | – | – | – | – | – | – | – | – | 0.313 | 0.269 | 0.214 | 0.171 | 0.234
8 | NCI-H1792 | 0.34 | 0.447 | 0.487 | 0.183 | 0.11 | 0.71 | 0.756 | 0.87 | 0.426 | 0.312 | – | – | – | – | – | 0.261 | 0.129 | 0.216 | 0.147 | 0.261
9 | NCI-H2342 | 0.377 | 0.4 | 0.416 | 0.319 | 0.362 | 0.837 | 0.759 | 0.685 | 0.539 | 0.62 | 0.788 | 0.788 | 0.471 | 0.421 | 0.369 | – | – | – | – | –
10 | SW 900 | 0.577 | 0.615 | 0.442 | 0.218 | 0.206 | 0.469 | 0.461 | 0.391 | 0.2 | 0.191 | 0.413 | 0.468 | 0.408 | 0.295 | 0.167 | – | – | – | – | –
